# Entries after “also recorded” stand apart in the source; their conditions may differ.
# What was measured:
# Format in all cases: in vivo
# [1] = system: sweet sensitive panelists; test: Sweet enhancement in a cola beverage application (7% sucrose cola, R-index ranking)
# Experimental: A 1% ethanol solution of N-cycloheptyl-2-methylindoline-1-carboxamide was added into a 7% sucrose containing cola solution. […] To determine its isointensity a panel of trained experts was then asked to evaluate the taste (in particularly the sweet taste) of this sample solution in comparison to sample cola solutions containing 7%, 8%, 9% and 10% sucrose but no N-cycloheptyl-2-methylindoline-1-carboxamide. Panel testing was carried out in the following way: Twenty milliliters of each of the sample solutions was presented blind and in random order to 20 sweet sensitive panelists. In two replications (over 1 session), panelists were asked to rank the solutions from least sweet to most sweet. The data was then subjected to an R-index analysis as described in example 15.
# [2] = system: sweet sensitive panelists; test: Isointensity measurement in water against sucrose solutions (R-index ranking)
# Experimental: A 1% solution of N-cycloheptyl-2-methylindoline-1-carboxamide was prepared in ethanol. This 1% solution was then further diluted, using water, to create a 5 ppm sample solution of N-cycloheptyl-2-methylindoline-1-carboxamide. To determine the isointensity of this solution a panel of trained experts was then asked to evaluate the taste (in particularly the sweet taste) of this sample solution in comparison to 0.5%, 1% and 1.5% sample sucrose solutions. Panel testing was carried out in the following way: Twenty milliliters of each of the samples was presented blind and in counter balanced order following a William's Latin square design, to 20 sweet sensitive panelists. In two replications (over 1 session), panelists were asked to taste and rank the solutions from least sweet to most sweet. […] A 1% solution of (R)-N-cyclooctyl-2-methylindoline-1-carboxamide was prepared in ethanol. This 1% solution was then further diluted, using water, to create a 2 ppm sample solution of (R)-N-cyclooctyl-2-methylindoline-1-carboxamide. To determine the isointensity of this solution a panel of trained experts was then asked to evaluate the taste (in particularly the sweet taste) of this sample solution in comparison to 0.5%, 1% and 1.5% sample sucrose solutions. Panel testing was carried out in the following way: Twenty milliliters of each of the samples was presented blind and in counter balanced order following a William's Latin square design, to 20 sweet sensitive panelists. In two replications (over 1 session), panelists were asked to taste and rank the solutions from least sweet to most sweet.
# panel of trained experts = test: Taste evaluation of diluted sample solutions by a panel of trained experts; settings: for taste of sample solutions (inherent sweetness): 1% ethanol solutions diluted with water to differing ppm concentrations; for effectiveness at creating modifying, or enhancing the sweet flavour of compositions and consumable products: general statement of the applicant
# Experimental: 1% solutions of compounds of formula (I) were prepared in ethanol. These 1% solutions were then further diluted, using water, to create sample solutions of differing ppm concentrations. A panel of trained experts was then asked to evaluate the taste of each sample solution and to comment on any inherent sweetness, other perceived taste, or flavor attributes. After tasting each sample the experts rinsed their mouths with water and a break was observed until the stimulus disappeared. […]
# [3] = system: sweet sensitive panelists; test: Sweet enhancement in 7% sucrose (aqueous solution, R-index ranking)
# Experimental: A 1% ethanol solution of (R)-N-cyclooctyl-2-methylindoline-1-carboxamide was added into an aqueous 7% sucrose solution. […] To determine its isointensity a panel of trained experts was then asked to evaluate the taste (in particularly the sweet taste) of this sample solution in comparison to aqueous sample solutions containing 7%, 8%, 9% and 10% sucrose, but without added (R)-N-cyclooctyl-2-methylindoline-1-carboxamide. Panel testing was carried out in the following way: Twenty milliliters of each of the sample solutions was presented blind and in random order to 20 sweet sensitive panelists. In two replications (over 1 session), panelists were asked to rank the solutions from least sweet to most sweet. The data was then subjected to an R-index analysis as described in example 5.
# [4] = 7% sugar cola + 5 ppm vs. 7% sugar
# [5] = 7% sugar cola + 5 ppm vs. 8% sugar
# [6] = 7% sugar cola + 5 ppm vs. 9% sugar
# [7] = 7% sugar cola + 5 ppm vs. 10% sugar
# [8] = 5 ppm in water vs. 0.5% sucrose solution
# [9] = 5 ppm in water vs. 1.0% sucrose solution
# [10] = 5 ppm in water vs. 1.5% sucrose solution
# [11] = 2 ppm in water vs. 0.5% sucrose solution
# [12] = 2 ppm in water vs. 1.0% sucrose solution
# [13] = 2 ppm in water vs. 1.5% sucrose solution
compound,measurement,setting,value
"CC1Cc2ccccc2N1C(=O)NC1CCCCCC1 (centres unmarked) [Example 2, N-cycloheptyl-2-methylindoline-1-carboxamide]",sweetness enhancer behaviour,"[1]; 5 ppm in 7% sucrose cola, iso sweet with 8% instead of expected 7.5% sucrose",behaving as a sweetness enhancer
same,Experimental Compound Sweetness,[1]; [4],significantly more sweet
same,R-index,[1]; [4],37.72
same,Significantly different (p < 0.05),[1]; [4],Yes
same,Experimental Compound Sweetness,[1]; [5],Iso sweet
same,R-index,[1]; [5],40.03
same,Significantly different (p < 0.05),[1]; [5],No
same,Experimental Compound Sweetness,[1]; [6],significantly less sweet
same,R-index,[1]; [6],68.97
same,Significantly different (p < 0.05),[1]; [6],Yes
same,Experimental Compound Sweetness,[1]; [7],significantly less sweet
same,R-index,[1]; [7],90.78
same,Significantly different (p < 0.05),[1]; [7],Yes
same,Experimental Compound Sweetness,[2]; [8],Iso-sweet; also recorded: iso sweet
same,R-index,[2]; [8],39.38
same,Significantly different (p < 0.05),[2]; [8],No
same,Experimental Compound Sweetness,[2]; [9],significantly less sweet
same,R-index,[2]; [9],78.63
same,Significantly different (p < 0.05),[2]; [9],Yes
same,Experimental Compound Sweetness,[2]; [10],significantly less sweet
same,R-index,[2]; [10],92.00
same,Significantly different (p < 0.05),[2]; [10],Yes
"C[C@@H]1Cc2ccccc2N1C(=O)NC1CCCCCCC1 [Example 20, (R)-N-cyclooctyl-2-methylindoline-1-carboxamide]",taste of sample solutions (inherent sweetness),panel of trained experts,sweet
same,"effectiveness at creating modifying, or enhancing the sweet flavour of compositions and consumable products",panel of trained experts,particularly effective
same,sweetness enhancer behaviour,"[3]; 2 ppm in 7% sucrose, iso sweet with 8% sucrose, expected less sweet than 8%",behaving as a sweetness enhancer
same,Experimental Compound Sweetness,[3]; 7% sugar + 2 ppm vs. 7% sugar,significantly more sweet
same,R-index,[3]; 7% sugar + 2 ppm vs. 7% sugar,35.53
same,Significantly different (p < 0.05),[3]; 7% sugar + 2 ppm vs. 7% sugar,Yes
same,Experimental Compound Sweetness,[3]; 7% sugar + 2 ppm vs. 8% sugar,Iso sweet
same,R-index,[3]; 7% sugar + 2 ppm vs. 8% sugar,61.44
same,Significantly different (p < 0.05),[3]; 7% sugar + 2 ppm vs. 8% sugar,No
same,Experimental Compound Sweetness,[3]; 7% sugar + 2 ppm vs. 9% sugar,significantly less sweet
same,R-index,[3]; 7% sugar + 2 ppm vs. 9% sugar,77.09
same,Significantly different (p < 0.05),[3]; 7% sugar + 2 ppm vs. 9% sugar,Yes
same,Experimental Compound Sweetness,[3]; 7% sugar + 2 ppm vs. 10% sugar,significantly less sweet
same,R-index,[3]; 7% sugar + 2 ppm vs. 10% sugar,88.44
same,Significantly different (p < 0.05),[3]; 7% sugar + 2 ppm vs. 10% sugar,Yes
same,R-index,[2]; [11],27.00
same,Significantly different (p < 0.05),[2]; [11],Yes
same,Experimental Compound Sweetness,[2]; [12],significantly less sweet
same,R-index,[2]; [12],72.31
same,Significantly different (p < 0.05),[2]; [12],Yes
same,Experimental Compound Sweetness,[2]; [13],significantly less sweet
same,R-index,[2]; [13],99.13
same,Significantly different (p < 0.05),[2]; [13],Yes
"C[C@@H]1Cc2ccccc2N1C(=O)NC1CCCCCC1 [Example 18, (R)-N-cycloheptyl-2-methylindoline-1-carboxamide]",taste of sample solutions (inherent sweetness),panel of trained experts,sweet
same,"effectiveness at creating modifying, or enhancing the sweet flavour of compositions and consumable products",panel of trained experts,particularly effective

# Source: patent US20120263848A1, “Organic Compounds” (priority 2009, published 2012)
